Data set [1] is described as follows: Test B: Cytotoxicity Assay. The format is cell-based. Particulars: human, uninfected MT-4 cells, CellTiter-Glo. The method, then:
Test B: Cytotoxicity Assay Compound cytotoxicity and the corresponding CC50 values was determined using the same protocol as described in the antiviral assay (Test A) except that uninfected cells were used.
Background: Cellular ATP, detected with luciferase, serves as a proxy for viable cell number.

The test system of data set [2] is HIV-IIIb. The data set can be described thus: Test A: Antiviral Assay in MT4 Cells. Type of data set: cell-based, HIV-1. Particulars: read-out: % inhibition at 0.2 μM (percent inhibition of virus-induced cell killing). Summed up: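 Readout was CellTiter-Glo luminescence after 10 min room-temperature lysis, taken 5 days after plating at 37 °C. The 2000 MT-4 cells per well, mixed 1 h beforehand with HIV-IIIb (m.o.i. 0.003), went straight onto the diluted compound.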

[3] abbreviates: Human immunodeficiency virus 1, MT4, 120 h, 0.2 μM drug concentration, MT-4 cells infected with HIV-IIIb, 5 days, values normalized to 100%, average over time.
[4] abbreviates: Human immunodeficiency virus 1, IIIB, MT4, 120 h.

Where two headings read alike, the source gives them in different places. A value given as a limit tells only on which side of the number the result lay.

Ten compounds from US9873680B2 (Gilead Sciences, Inc., priority 2014, dated 2018) can be followed below.

For orientation: CC50 means the concentration that lowers cell viability or growth by half. What is called inhibition is the change of the read-out against control, counted positive when it falls.

Turning to `CC(=O)N1CCCC1C#Cc1ccc(-c2ccc(Cl)c3c(NS(C)(=O)=O)nn(C)c23)c([C@H](Cc2cc(F)cc(F)c2)NC(=O)Cn2nc(C(F)(F)F)c3c2C(F)(F)[C@@H]2C[C@H]32)n1` (stereo partly drawn) [Compound 55, N-((1S)-1-(6-((1-acetylpyrrolidin-2-yl)ethynyl)-3-(4-chloro-1-methyl-3-(methylsulfonamido)-1H-indazol-7-yl)pyridin-2-yl)-2-(3,5-difluorophenyl)ethyl)-2-((3bS,4aR)-5,5-difluoro-3-(trifluoromethyl)-3b,4,4a,5-tetrahydro-1H-cyclopropa[3,4]cyclopenta[1,2-c]pyrazol-1-yl)acetamide], in data set [1], the CC50 at 5 days was found to be 9.94 µM. Further, in data set [2] (setting [3]), the inhibition at 0.2 µM turned out to be 88%.

In the case of `Cn1cnc(C(O)C#Cc2ccc(-c3ccc(Cl)c4c(NS(C)(=O)=O)nn(C)c34)c([C@H](Cc3cc(F)cc(F)c3)NC(=O)Cn3nc(C(F)(F)F)c4c3C(F)(F)[C@@H]3C[C@H]43)n2)c1` (stereo partly drawn) [Compound 56B, N-((1S)-1-(3-(4-chloro-1-methyl-3-(methylsulfonamido)-1H-indazol-7-yl)-6-(3-hydroxy-3-(1-methyl-1H-imidazol-4-yl)prop-1-yn-1-yl)pyridin-2-yl)-2-(3,5-difluorophenyl)ethyl)-2-((3bS,4aR)-5,5-difluoro-3-(trifluoromethyl)-3b,4,4a,5-tetrahydro-1H-cyclopropa[3,4]cyclopenta[1,2-c]pyrazol-1-yl)acetamide], it took 9.02 µM to reach half-maximal cytotoxicity in data set [1] (CC50 at 5 days). For the same compound, the inhibition at 0.2 µM in data set [2] (setting [3]) was 84%.

Compound `Cn1nc(O)c2c(Cl)ccc(-c3ccc(C#CC4(O)CCOCC4)nc3[C@H](Cc3cc(F)cc(F)c3)NC(=O)Cn3nc(C(F)(F)F)c4c3CCCC4)c21` [Compound 57, (S)—N-(1-(3-(4-chloro-3-hydroxy-1-methyl-1H-indazol-7-yl)-6-((4-hydroxytetrahydro-2H-pyran-4-yl)ethynyl)pyridin-2-yl)-2-(3,5-difluorophenyl)ethyl)-2-(3-(trifluoromethyl)-4,5,6,7-tetrahydro-1H-indazol-1-yl)acetamide] yielded a CC50 at 5 days in data set [1] of 21 µM. In addition, in data set [2] (setting [4]), the inhibition at 0.2 µM amounted to 100%.

As for `Cn1nc(NS(C)(=O)=O)c2c(Cl)ccc(-c3ccc(C#CC4(O)CCNC4)nc3[C@H](Cc3cc(F)cc(F)c3)NC(=O)Cn3nc(C(F)(F)F)c4c3C(F)(F)[C@@H]3C[C@H]43)c21` (stereo partly drawn) [Compound 58, N-((1S)-1-(3-(4-chloro-1-methyl-3-(methylsulfonamido)-1H-indazol-7-yl)-6-((3-hydroxypyrrolidin-3-yl)ethynyl)pyridin-2-yl)-2-(3,5-difluorophenyl)ethyl)-2-((3bS,4aR)-5,5-difluoro-3-(trifluoromethyl)-3b,4,4a,5-tetrahydro-1H-cyclopropa[3,4]cyclopenta[1,2-c]pyrazol-1-yl)acetamide], in data set [1], the CC50 at 5 days stood at 5.19 µM. Moreover, the inhibition at 0.2 µM in data set [2] (setting [3]) amounted to 91%.

Turning to `Cn1nc(NS(C)(=O)=O)c2c(Cl)ccc(-c3ccc(C#CC(C)(O)C4CC4)nc3[C@H](Cc3cc(F)cc(F)c3)NC(=O)Cn3nc(C(F)(F)F)c4c3C(F)(F)[C@@H]3C[C@H]43)c21` (stereo partly drawn) [Compound 59, N-((1S)-1-(3-(4-chloro-1-methyl-3-(methylsulfonamido)-1H-indazol-7-yl)-6-(3-cyclopropyl-3-hydroxybut-1-yn-1-yl)pyridin-2-yl)-2-(3,5-difluorophenyl)ethyl)-2-((3bS,4aR)-5,5-difluoro-3-(trifluoromethyl)-3b,4,4a,5-tetrahydro-1H-cyclopropa[3,4]cyclopenta[1,2-c]pyrazol-1-yl)acetamide], the CC50 at 5 days in data set [1] turned out to be 10.2 µM. For the same compound, in data set [2] (setting [3]), the inhibition at 0.2 µM was determined as 95%.

In data set [1], `Cn1nc(NS(C)(=O)=O)c2c(Cl)ccc(-c3ccc(C#CC(C)(C)N4CCOC4=O)nc3[C@H](Cc3cc(F)cc(F)c3)NC(=O)Cn3nc(C(F)F)c4c3C(F)(F)[C@@H]3C[C@H]43)c21` [Compound 60D, N—((S)-1-(3-(4-chloro-1-methyl-3-(methylsulfonamido)-1H-indazol-7-yl)-6-(3-methyl-3-(2-oxooxazolidin-3-yl)but-1-yn-1-yl)pyridin-2-yl)-2-(3,5-difluorophenyl)ethyl)-2-((3bS,4aR)-3-(difluoromethyl)-5,5-difluoro-3b,4,4a,5-tetrahydro-1H-cyclopropa[3,4]cyclopenta[1,2-c]pyrazol-1-yl)acetamide] came in with a cytotoxic concentration (CC50) at 5 days above 27.8 µM. In addition, the inhibition at 0.2 µM in data set [2] (setting [4]) is 94%.

Take `Cn1nc(NS(C)(=O)=O)c2c(Cl)ccc(-c3ccc(C#CC4(O)CCC4)nc3[C@H](Cc3cc(F)cc(F)c3)NC(=O)Cn3nc(C(F)(F)F)c4c3C(F)(F)[C@@H]3C[C@H]43)c21` [Compound 61C, N—((S)-1-(3-(4-chloro-1-methyl-3-(methylsulfonamido)-1H-indazol-7-yl)-6-((1-hydroxycyclobutyl)ethynyl)pyridin-2-yl)-2-(3,5-difluorophenyl)ethyl)-2-((3bS,4aR)-5,5-difluoro-3-(trifluoromethyl)-3b,4,4a,5-tetrahydro-1H-cyclopropa[3,4]cyclopenta[1,2-c]pyrazol-1-yl)acetamide]: the CC50 at 5 days in data set [1] amounted to 7.89 µM. The inhibition at 0.2 µM in data set [2] (setting [3]) came out at 93%.

The compound `Cn1nc(NS(C)(=O)=O)c2c(Cl)ccc(-c3ccc(C#CC4(O)CC4)nc3[C@H](Cc3cc(F)cc(F)c3)NC(=O)Cn3nc(C(F)F)c4c3C(F)(F)[C@@H]3C[C@H]43)c21` [Compound 62B, N—((S)-1-(3-(4-chloro-1-methyl-3-(methylsulfonamido)-1H-indazol-7-yl)-6-((1-hydroxycyclopropyl)ethynyl)pyridin-2-yl)-2-(3,5-difluorophenyl)ethyl)-2-((3bS,4aR)-3-(difluoromethyl)-5,5-difluoro-3b,4,4a,5-tetrahydro-1H-cyclopropa[3,4]cyclopenta[1,2-c]pyrazol-1-yl)acetamide] displayed a 50% cytotoxic concentration (CC50) at 5 days in data set [1] of 14.9 µM. In addition, the inhibition at 0.2 µM in data set [2] (setting [3]) was determined as 93%.

With `Cn1nc(NS(C)(=O)=O)c2c(Cl)ccc(-c3ccc(C#CC(C)(C)N4CCOC4=O)nc3[C@H](Cc3cc(F)cc(F)c3)NC(=O)Cn3nc(C(F)(F)F)c4c3C(F)(F)[C@@H]3C[C@H]43)c21` [Compound 63, N—((S)-1-(3-(4-chloro-1-methyl-3-(methylsulfonamido)-1H-indazol-7-yl)-6-(3-methyl-3-(2-oxooxazolidin-3-yl)but-1-yn-1-yl)pyridin-2-yl)-2-(3,5-difluorophenyl)ethyl)-2-((3bS,4aR)-5,5-difluoro-3-(trifluoromethyl)-3b,4,4a,5-tetrahydro-1H-cyclopropa[3,4]cyclopenta[1,2-c]pyrazol-1-yl)acetamide], the midpoint of cytotoxicity in data set [1], the CC50 at 5 days, lay at 20.7 µM. The inhibition at 0.2 µM in data set [2] (setting [3]) came to 90%.

`Cn1nc(NS(C)(=O)=O)c2c(Cl)ccc(-c3ccc(C#CC4(O)CC4)nc3[C@H](Cc3cc(F)cc(F)c3)NC(=O)Cn3nc(C(F)(F)F)c4c3C(F)(F)[C@@H]3C[C@H]43)c21` [Compound 64, N—((S)-1-(3-(4-chloro-1-methyl-3-(methylsulfonamido)-1H-indazol-7-yl)-6-((1-hydroxycyclopropyl)ethynyl)pyridin-2-yl)-2-(3,5-difluorophenyl)ethyl)-2-((3bS,4aR)-5,5-difluoro-3-(trifluoromethyl)-3b,4,4a,5-tetrahydro-1H-cyclopropa[3,4]cyclopenta[1,2-c]pyrazol-1-yl)acetamide] registered a CC50 at 5 days in data set [1] of 16.1 µM. For the same compound, the inhibition at 0.2 µM in data set [2] (setting [3]) came to 98%.
